The values below come from patent publication US20210214285A1, “EMULSION FOR TREATING UREA-CONTAINING FERTILIZERS” (EUROCHEM AGRO GMBH, priority 2018, published 2021).

For series [1] the following is noted: at 20° C.; cited from earlier work.
A short description of series [2]: Comparative experiment: urea treated with DMPP/NBPT emulsion, degradation on storage (HPLC). The note with it: for amount broken down: after a period of 7 days.
Series [3] is described as follows: Storage stability test of treated urea fertilizers (NBPT and DMPSA content over time). It is filed as physicochemical. The note with it: urea coated with DMPSA/NBPT emulsion (invention, FIG. 2) versus sequential application (comparative, FIG. 1); stored 90 days under standard conditions in a climate-controlled cabinet. How it is done: 20 kg of granulated urea was initially charged in a mixer. 35 g of the NBPT formulation and 79 g of DMPSA formulation were introduced into a spray bottle and shaken until a homogeneous emulsion had formed. The formulation emulsion was immediately sprayed onto the urea, with intermittent shaking of the spray bottle in order to prevent settling of the emulsion. The mixer was operated for a further 10 minutes until a homogeneous product was obtained.
In a comparative experiment, identical amounts of DMPSA and NBPT were applied to urea. DMPSA formulation was applied first to the urea by the method described above, and the NBPT formulation was applied after drying.
Storage stability tests were conducted for both the urea fertilizers treated. They were stored for a period of 90 days under standard conditions in a climate-controlled cabinet. The NBPT and DMPSA content was determined at time intervals.

Converted amounts (≈) assume the structure as drawn.

For the molecule `CCCCCC(CO)CCC` (stereo not shown) [2-Propylheptan-1-ol], the water solubility in series [1] was 58 µg/mL (≈ 366 µM).

Regarding `Cc1c[nH]nc1C.O=P(O)(O)O` [DMPP, 3,4-dimethylpyrazole phosphate, reference compound], in series [2], the degradation characteristics result is given as “rapid degradation characteristics” and the amount broken down result is given as “about 50%”.

Consider `Cc1cn(C(CC(=O)O)C(=O)O)nc1C` (stereo not shown) [DMPSA, 2-(N-3,4-dimethylpyrazole)succinic acid], for which the “decrease in NBPT and DMPSA content over time” value in series [3] was “significantly smaller”.

In the case of `CCCCNP(N)(N)=S` [NBPT, N-(n-butyl)-thiophosphoric acid triamide], in series [3], the “decrease in NBPT and DMPSA content over time” value is “significantly smaller”. Moreover, in series [2], the degradation characteristics entry is “rapid degradation characteristics” and the amount broken down was determined as 100%.
